Measured values reported in patent US11427548B2 (Arvinas Operations, Inc., priority 2015, dated 2022).
Where two headings read alike, the source gives them in different places.

Target: T1, Androgen Receptor (Homo sapiens, UniProt P10275)
T1 construct: endogenous in cells; host or cells: VCaP cells
T1 sequence (P10275 1-920): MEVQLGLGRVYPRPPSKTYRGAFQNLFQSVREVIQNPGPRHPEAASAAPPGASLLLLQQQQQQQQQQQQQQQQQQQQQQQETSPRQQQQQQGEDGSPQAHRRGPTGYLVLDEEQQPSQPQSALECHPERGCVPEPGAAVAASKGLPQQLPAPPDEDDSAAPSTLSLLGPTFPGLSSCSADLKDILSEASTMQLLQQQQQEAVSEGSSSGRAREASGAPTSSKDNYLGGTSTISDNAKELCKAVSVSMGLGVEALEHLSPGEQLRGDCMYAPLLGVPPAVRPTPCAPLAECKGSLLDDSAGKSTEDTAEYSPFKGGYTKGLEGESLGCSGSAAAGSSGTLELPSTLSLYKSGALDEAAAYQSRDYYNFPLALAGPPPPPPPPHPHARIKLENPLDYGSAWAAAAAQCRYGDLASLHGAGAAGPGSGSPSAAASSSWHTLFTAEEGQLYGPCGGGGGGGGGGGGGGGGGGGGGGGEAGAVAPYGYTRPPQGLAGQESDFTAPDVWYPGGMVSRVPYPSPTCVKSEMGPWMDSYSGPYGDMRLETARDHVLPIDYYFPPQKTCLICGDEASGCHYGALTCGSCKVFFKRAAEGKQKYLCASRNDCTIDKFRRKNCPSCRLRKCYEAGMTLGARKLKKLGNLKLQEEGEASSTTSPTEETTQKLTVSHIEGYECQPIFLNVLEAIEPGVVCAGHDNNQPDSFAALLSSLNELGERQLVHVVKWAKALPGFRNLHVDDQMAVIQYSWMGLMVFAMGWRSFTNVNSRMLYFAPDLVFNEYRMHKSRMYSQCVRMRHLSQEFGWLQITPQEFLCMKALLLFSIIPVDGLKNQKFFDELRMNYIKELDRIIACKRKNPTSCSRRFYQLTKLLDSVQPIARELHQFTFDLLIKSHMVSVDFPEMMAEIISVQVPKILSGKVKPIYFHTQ
Test: Androgen Receptor ELISA assay (PathScan AR ELISA) in VCaP cells: AR degradation, Dmax and DC50
Type: cell-based
Method in brief: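 After 24 h exposure of VCaP cells (charcoal-stripped serum, 0.1 nM R1881 agonist, 0.1% DMSO) to seven half-log compound concentrations, residual AR in lysates was measured by PathScan ELISA (TMB absorbance, 450 nm). Cells were plated at 30,000/well and grown at least 3 days beforehand.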

[1] = VCaP cells; Table 35; read-out: VCaP DC50
[2] = VCaP, VCaP cells; Table 35; read-out: VCaP Dmax (%)
[3] = read-out: VCaP DC50; VCaP cells; Table 36
[4] = read-out: VCaP DC50; VCaP cells; Table 34
[5] = VCaP cells; concentration that caused 50% Androgen Receptor degradation; read-out: VCaP DC50
[6] = VCaP, VCaP cells; highest percentage of Androgen Receptor degradation; read-out: VCaP Dmax (%)
[7] = VCaP cells; Table 36; read-out: VCaP DC50
[8] = VCaP, VCaP cells; Table 36; read-out: VCaP Dmax (%)

Question: What does the source list for `CN(C)c1ccc(CNC(=O)[C@@H]2C[C@@H](O)CN2C(=O)[C@@H](NC(=O)COCCCOCCCCCOc2ccc(N3C(=S)N(c4ccc(C#N)c(C(F)(F)F)c4)C(=O)C3(C)C)cc2)C(C)(C)C)cn1` [Example 451]?
Answer: Dmax (VCaP, read-out: VCaP Dmax (%)): < 25%; DC50 (read-out: VCaP DC50; VCaP cells; Table 35): > 501 nM

Question: With `CNC(=O)[C@@H]1C[C@@H](O)CN1C(=O)[C@@H](NC(=O)COCCCCCOc1ccc(C(=O)N[C@H]2C(C)(C)[C@H](Oc3ccc(C#N)c(Cl)c3)C2(C)C)cc1)C(C)(C)C` [Example 507] as the compound, how does the DC50 [1] read?
Answer: Its DC50 is < 50 nM.

Question: And the Dmax [2]?
Answer: The Dmax was 26 to 50%.

Question: How did the Dmax (VCaP, read-out: VCaP Dmax (%)) turn out when `Cc1ncsc1-c1ccc([C@H](C)NC(=O)C2C[C@@H](O)CN2C(=O)C(NC(=O)CN2C3CCC2CN(CCCCc2ccc(C(=O)N[C@H]4C(C)(C)[C@H](Oc5ccc(C#N)c(Cl)c5)C4(C)C)cn2)C3)C(C)(C)C)cc1` (stereo partly drawn) [Example 840, N-((1r,3r)-3-(3-chloro-4-cyanophenoxy)-2,2,4,4-tetramethylcyclobutyl)-6-(4-(8-(2-(((S)-1-((2S, 4R)-4-hydroxy-2-(((S)-1-(4-(4-methylthiazol-5-yl)phenyl)ethyl)carbamoyl)pyrrolidin-1-yl)-3,3-dimethyl-1-oxobutan-2-yl)amino)-2-oxoethyl)-3,8-diazabicyclo[3.2.1]octan-3-yl)butyl) nicotinamide] was run?
Answer: Its Dmax is > 71%.

Question: And the DC50 [3]?
Answer: The DC50 was < 50 nM.

Question: How did the Dmax (VCaP, read-out: VCaP Dmax (%)) turn out when `Cc1ncsc1-c1ccc([C@H](C)NC(=O)[C@@H]2C[C@@H]3CN2C(=O)[C@H](C(C)(C)C)NC(=O)COCCCOCCC(CCOc2ccc(N4C(=S)N(c5ccc(C#N)c(C(F)(F)F)c5)C(=O)C4(C)C)cc2)OC(=O)CCc2cn(nn2)CCCCCC(=O)O3)cc1` (stereo partly drawn) [Example 621, (93R,95S,11S,Z)-11-(tert-butyl)-22-(2-(4-(3-(4-cyano-3-(trifluoromethyl)phenyl)-5,5-dimethyl-4-oxo-2-thioxoimidazolidin-1-yl)phenoxy)ethyl)-N-((S)-1-(4-(4-methylthiazol-5-yl)phenyl)ethyl)-7,10,13,24-tetraoxo-11H-8,15,19,23-tetraoxa-12-aza-1(1,4)-triazola-9(3,1)-pyrrolidinacyclohexaco-saphane-95-carboxamide] was run?
Answer: The Dmax was < 25%.

Question: What about the DC50 [3] of the same compound?
Answer: Its DC50 is > 501 nM.

Question: With `Cc1ncsc1-c1ccc(CNC(=O)[C@@H]2C[C@@H](O)CN2C(=O)[C@@H](NC(=O)CCOCCN2CCC(COc3ccc(N4C(=S)N(c5ccc(C#N)c(C(F)(F)F)c5)C(=O)C4(C)C)cc3)CC2)C(C)(C)C)cc1` [Example 313] as the compound, how does the DC50 [4] read?
Answer: The DC50 was < 50 nM.

Question: Which results are given for `Cc1ncoc1-c1ccc(CNC(=O)[C@@H]2C[C@@H](O)CN2C(=O)[C@@H](NC(=O)COCCCCOc2ccc(-c3ccc(N4C(=S)N(c5cnc(C#N)c(C(F)(F)F)c5)C(=O)C4(C)C)cc3)cc2)C(C)(C)C)cc1` [Example 192, (2S,4R)-1-[(2S)-2-(2-{4-[4-(4-{3-[6-cyano-5-(trifluoromethyl)pyridin-3-yl]-5,5-dimethyl-4-oxo-2-sulfanylideneimidazolidin-1-yl}phenyl)phenoxy]butoxy}acetamido)-3,3-dimethylbutanoyl]-4-hydroxy-N-{[4-(4-methyl-1,3-oxazol-5-yl)phenyl]methyl}pyrrolidine-2-carboxamide]?
Answer: DC50 [5]: < 50 nM; Dmax [6]: > 71%

Question: Which results are given for `C[C@H](NC(=O)[C@@H]1C[C@@H](O)CN1C(=O)[C@@H](NC(=O)COCCCCCNc1ccc(C(=O)N[C@H]2C(C)(C)[C@H](Oc3ccc(C#N)c(Cl)c3)C2(C)C)cc1)C(C)(C)C)c1ccc(-c2c[nH]nn2)cc1` [Example 517]?
Answer: DC50 [1]: < 50 nM; Dmax [2]: > 71%

Question: Which results are given for `Cc1ncsc1-c1ccc([C@H](C)NC(=O)[C@@H]2C[C@@H](O)CN2C(=O)[C@@H](NC(=O)CNCCNc2ccc(-c3ccc(C(=O)N[C@H]4C(C)(C)[C@H](Oc5ccc(C#N)c(Cl)c5)C4(C)C)cc3)cn2)C(C)(C)C)cc1` [Example 483]?
Answer: DC50 [1]: < 50 nM; Dmax [2]: > 71%

Question: What does the source list for `Cc1ncsc1-c1ccc(CNC(=O)[C@@H]2C[C@@H](O)CN2C(=O)[C@@H](NC(=O)COCCCCOc2ccc(-c3ccc(N4C(=S)N(c5cnc(C#N)c(C(F)(F)F)c5)C(=O)C4(C)C)cc3)cc2)C(C)(C)C)cc1` [Example 193, (2S,4R)-1-[(2S)-2-(2-{4-[4-(4-{3-[6-cyano-5-(trifluoromethyl)pyridin-3-yl]-5,5-dimethyl-4-oxo-2-sulfanylideneimidazolidin-1-yl}phenyl)phenoxy]butoxy}acetamido)-3,3-dimethylbutanoyl]-4-hydroxy-N-{[4-(4-methyl-1,3-thiazol-5-yl)phenyl]methyl}pyrrolidine-2-carboxamide]?
Answer: DC50 [5]: < 50 nM; Dmax [6]: > 71%

Question: For `Cc1ncsc1-c1ccc([C@H](C)NC(=O)[C@@H]2C[C@@H](O)CN2C(=O)[C@@H](c2ncc(CCCCCNc3ccc(C(=O)N[C@H]4C(C)(C)[C@H](Oc5ccc(C#N)c(Cl)c5)C4(C)C)nc3)n2C)C(C)C)cc1` [Example 691, N-((1r,3r)-3-(3-chloro-4-cyanophenoxy)-2,2,4,4-tetramethylcyclobutyl)-5-((5-(2-((R)-1-((2S,4R)-4-hydroxy-2-(((S)-1-(4-(4-methylthiazol-5-yl)phenyl)ethyl)carbam-oyl)pyrrolidin-1-yl)-3-methyl-1-oxobutan-2-yl)-1-methyl-1H-imidazol-5-yl)pentyl)amino)picolin-amide], which DC50 [7] is on record?
Answer: The DC50 was > 501 nM.

Question: And the Dmax [8]?
Answer: The Dmax was < 25%.

Question: Which results are given for `Cc1ncsc1-c1ccc(CNC(=O)[C@@H]2C[C@@H](O)CN2C(=O)[C@@H](NC(=O)COc2ccc(OCC#Cc3ccc(N4C(=S)N(c5ccc(C#N)c(C(F)(F)F)c5)C(=O)C4(C)C)cc3)cc2)C(C)(C)C)cc1` [Example 413]?
Answer: Dmax (VCaP, read-out: VCaP Dmax (%)): 51 to 70%; DC50 [4]: < 50 nM

Question: Which results are given for `Cc1ncsc1-c1ccc(CNC(=O)[C@@H]2C[C@@H](O)CN2C(=O)[C@@H](NC(=O)CNC(=O)c2ccc(Oc3ccc(C(=O)N[C@H]4C(C)(C)[C@H](Oc5ccc(C#N)c(Cl)c5)C4(C)C)cc3)cc2)C(C)(C)C)cc1` [Example 187, (2S,4R)-1-[(2S)-3,3-dimethyl-2-(2-{[4-(4-{[trans-3-(3-chloro-4-cyanophenoxy)-2,2,4,4-tetramethylcyclobutyl]carbamoyl}phenoxy)phenyl] formamido}acetamido)butanoyl]-4-hydroxy-N-{[4-(4-methyl-1,3-thiazol-5-yl)phenyl]methyl} pyrrolidine-2-carboxamide]?
Answer: Dmax (VCaP, highest percentage of Androgen Receptor degradation observed, VCaP cells (Table 32); read-out: VCaP Dmax (%)): > 71%; DC50 (concentration that caused 50% Androgen Receptor degradation, VCaP cells (Table 32); read-out: VCaP DC50): < 50 nM

Question: For `Cc1ncsc1-c1ccc([C@@H](CN2CCCC2)NC(=O)[C@@H]2C[C@@H](O)CN2C(=O)[C@@H](NC(=O)COCCCCCOc2ccc(C(=O)N[C@H]3C(C)(C)[C@H](Oc4ccc(C#N)c(Cl)c4)C3(C)C)cc2)C(C)(C)C)cc1` [Example 466], which DC50 [1] is on record?
Answer: Its DC50 is 51 to 500 nM.

Question: And the Dmax [2]?
Answer: Its Dmax is > 71%.

Question: What does the source list for `Cc1ncsc1-c1ccc([C@H](C)NC(=O)[C@@H]2C[C@@H](O)CN2C(=O)[C@@H](NC(=O)CCCCCCCCc2ccc(C(=O)N[C@H]3C(C)(C)[C@H](Oc4ccc(C#N)c(Cl)c4)C3(C)C)cc2)C(C)(C)C)cc1` [Example 756, (2S,4R)-1-((S)-2-(9-(4-(((1r,3r)-3-(3-chloro-4-cyanophenoxy)-2,2,4,4-tetramethylcyclobutyl)carbamoyl)phenyl)nonan-amido)-3,3-dimethylbutanoyl)-4-hydroxy-N-((S)-1-(4-(4-methylthiazol-5-yl)phenyl)ethyl)pyrrolidine-2-carboxamide]?
Answer: DC50 [7]: 51 to 500 nM; Dmax [8]: 51 to 70%

Question: How did the Dmax (VCaP, read-out: VCaP Dmax (%)) turn out when `Cc1ncsc1-c1ccc([C@H](C)NC(=O)[C@@H]2CC3CN2C(=O)C(C(C)(C)C)NC(=O)COCCCOCCC(CCOc2ccc(N4C(=S)N(c5ccc(C#N)c(C(F)(F)F)c5)C(=O)C4(C)C)cc2)OC(=O)CC/C=C/CCC(=O)O3)cc1` (stereo partly drawn) [Example 619, (3S,25R,27S,E)-3-(tert-butyl)-14-(2-(4-(3-(4-cyano-3-(trifluoromethyl)phenyl)-5,5-dimethyl-4-oxo-2-thioxoimidazolidin-1-yl)phenoxy)ethyl)-N-((S)-1-(4-(4-methylthiazol-5-yl)phenyl)ethyl)-2,5,16,23-tetraoxo-7,11,15,24-tetraoxa-1,4-diazabicyclo[23.2.1]oct-acos-19-ene-27-carboxamide] was run?
Answer: The Dmax was < 25%.

Question: What about the DC50 [3] of the same compound?
Answer: The DC50 was > 501 nM.
